Test results taken from paper PMC10689823, “Discovery of a Drug-like, Natural Product-Inspired DCAF11 Ligand Chemotype” (Nature Communications, 2023).
“And” between values parts separate entries of the source, which are not always exact repeats. Equal entries are not always repeated.

Tested on: BRD2
Assay: In-Cell Western for BRD2 levels in Hep G2 cells
Format: cell-based
Settings: then 9 (10 μM, 4 h); for BRD2/Vinculin intensity (relative to control group): Hep G2 cells, single repeats, Fig. 4h; for Value (Mean ± SD): Relative BRD2 levels remaining in Hep G2 cells after treatment with compounds followed by treatment with 9, with DMSO control for normalization: qualitative ICW assay, Supplementary Table 1
Procedure: Hep G2 cells were seeded in 96-well plates and incubated for 24 h. Compounds were added for the indicated time at the indicated concentration. Cells were then washed once with PBS and fixed with 4% paraformaldehyde for 30 min at room temperature. The fixed cells were permeabilized with 0.5 % Triton-X100 for 15 min followed by block with Intercept® Blocking Buffer (LI-COR Biosciences, 927-70001) for 1 h at room temperature. Primary antibodies for BRD2 (1:800) and Vinculin (1:2000) were diluted with LI-COR buffer and incubated with the cells at 4 °C overnight. Cells were washed with PBS-T, and the secondary antibodies conjugated to IRDye (1:1000, LI-COR Biosciences) were added to the cells for 1 h at room temperature. After washing the cells, the signal was recorded with the Odyssey® CLx Infrared Imaging System (LI-COR Biosciences) and the protein levels were analyzed by Image Studio (LI-COR Biosciences). BRD2 protein levels were normalized to the levels of reference protein vinculin.

[1] = pretreated with compound at 30 μM 1 h

| SMILES | BRD2/Vinculin intensity (relative to control group) [1] | Value (Mean ± SD): Relative BRD2 levels remaining in Hep G2 cells after treatment with compounds followed by treatment with 9, with DMSO control for normalization (pretreated at 30 μM 1 h) | BRD2/Vinculin intensity (relative to control group) (pretreated with MLN4924 at 1 μM 1 h) | Value (Mean ± SD): Relative BRD2 levels remaining in Hep G2 cells after treatment with compounds followed by treatment with 9, with DMSO control for normalization (MLN4924 at 1 μM 1 h) |
| --- | --- | --- | --- | --- |
| CC(=O)N1C(=O)C(=Cc2cc(Br)c(OCCO)c(Br)c2)c2cc(Br)ccc21 (mixture of isomers) [Compound 40] | 50.1992 and 43.5119 and 52.0339 and 53.5687 | 49.83 ± 3.84 |  |  |
| CN1C(=O)C(=Cc2cc(Br)c(OCCO)c(Br)c2)c2cc(Br)ccc21 (mixture of isomers) [Compound 45] | 68.8291 and 61.2096 and 73.2245 and 67.5028 | 67.69 ± 4.30 |  |  |
| O=C1Nc2cc(Cl)ccc2C1=Cc1c[nH]c2ccc(Br)cc12 [Compound 19] | 19.139 and 23.0411 and 26.0065 and 21.6242 | 22.45 ± 2.48 |  |  |
| Cc1cc(C=C2C(=O)Nc3cc(Cl)ccc32)c(C)n1-c1ccc(Cl)cc1 [Compound 20] | 18.6668 and 28.7239 and 22.4508 and 22.3561 | 23.05 ± 3.61 |  |  |
| Cc1ccc(C=C2C(=O)Nc3ccc(Br)cc32)o1 [Compound 21] | 35.3621 and 27.9558 and 29.5667 and 18.9355 | 27.96 ± 5.89 |  |  |
| CCn1cc(C=C2C(=O)N(C)c3ccccc32)c2ccccc21 [Compound 22] | 27.5998 and 30.1143 and 27.5093 and 28.0162 | 28.31 ± 1.06 |  |  |
| Cc1cccc(-n2c(C=C3C(=O)Nc4ccc(Br)cc43)nc3ccccc3c2=O)c1 [Compound 23] | 33.3864 and 29.794 and 26.5816 and 25.9636 | 28.93 ± 2.95 |  |  |
| O=C1Nc2ccc(Br)cc2C1=Cc1ccc(-c2ccc(Cl)cc2)o1 [Compound 24] | 33.2997 and 37.4269 and 27.7324 and 30.7224 | 32.30 ± 3.56 |  |  |
| CCOC(=O)c1ccc(-c2ccc(C=C3C(=O)Nc4ccc(Br)cc43)o2)cc1 [Compound 25] | 36.1651 and 31.9974 and 32.0528 and 31.1097 | 32.83 ± 1.96 |  |  |
| O=C1Nc2ccc(Br)cc2C1=Cc1ccc2ccccc2n1 [Compound 26] | 39.8782 and 39.8556 and 38.9972 and 37.1452 | 38.97 ± 1.11 |  |  |
| COc1cccc(C=C2C(=O)Nc3ccc(Br)cc32)c1OCc1ccccc1 [Compound 27] | 30.4848 and 27.4717 and 21.0618 and 23.6161 | 25.66 ± 3.60 |  |  |
| O=C1Nc2ccccc2C1=CC=Cc1ccccc1 [Compound 28] | 22.3518 and 31.2898 and 26.3948 and 28.7193 | 27.19 ± 3.29 |  |  |
| COc1cc2c(cc1OC)C(=CC=Cc1ccc(N(C)C)cc1)C(=O)N2 [Compound 29] | 35.199 and 32.8298 and 30.2931 and 29.1162 | 31.86 ± 2.35 |  |  |
| CCOc1ccc(Br)c(C=C2C(=O)Nc3ccc(Br)cc32)c1 [Compound 30] | 30.1563 and 42.48 and 35.4039 and 36.6749 | 36.18 ± 4.38 |  |  |
| COc1cc(C)c(C=C2C(=O)Nc3ccccc32)cc1C [Compound 31] | 36.8879 and 36.7406 and 37.2822 and 33.8929 | 36.20 ± 1.35 |  |  |
| COc1cc(OC)c(OC)cc1C=C1C(=O)Nc2ccc(Br)cc21 [Compound 32] | 37.3799 and 42.1343 and 35.9887 and 37.382 | 38.22 ± 2.33 |  |  |
| O=C1Nc2cc(Cl)c(Cl)cc2C1=Cc1cc(Br)c(OCCO)c(Br)c1 [Compound 33] | 39.4036 and 41.0431 and 32.5156 and 41.2316 | 38.55 ± 3.55 |  |  |
| CCOc1cccc(C=C2C(=O)Nc3ccc(Br)cc32)c1O [Compound 34] | 32.5833 and 35.4683 and 36.0421 and 51.0354 | 38.78 ± 7.19 |  |  |
| COc1cc2c(cc1OC)C(=Cc1ccc(OC)c(OC)c1OC)C(=O)N2 [Compound 35] |  | 43.80 ± 10.34 |  |  |
| COc1cc(C=C2C(=O)Nc3ccc(Br)cc32)ccc1O [Compound 36] | 48.1488 and 40.4194 and 43.1435 and 45.121 | 44.21 ± 2.82 |  |  |
| COc1cc(C=C2C(=O)N(C(C)=O)c3ccc(Br)cc32)c(Br)cc1OC(C)=O [Compound 37] | 55.6586 and 50.2433 and 39.6211 and 39.558 | 46.27 ± 6.95 |  |  |
| COc1cc(C=C2C(=O)Nc3ccc(Br)cc32)cc(OC)c1OC [Compound 38] | 42.8563 and 47.1155 and 46.6713 and 48.8801 | 46.38 ± 2.20 |  |  |
| CCOc1c(O)ccc(C=C2C(=O)Nc3ccc(Br)cc32)c1[N+](=O)[O-] [Compound 39] | 52.2917 and 48.4313 and 42.763 and 42.1712 | 46.41 ± 4.18 |  |  |
| O=C1Nc2ccc([N+](=O)[O-])cc2C1=Cc1cc(Br)c(OCCO)c(Br)c1 [Compound 41] | 35.3006 and 58.464 and 60.939 | 51.57 ± 11.55 |  |  |
| O=C1Nc2cccc(Br)c2C1=Cc1cc(Br)c(OCCO)c(Br)c1 [Compound 43] | 65.9619 and 44.3044 and 51.8651 and 61.4106 | 55.89 ± 8.40 |  |  |
| O=C1Nc2c(Br)cccc2C1=Cc1cc(Br)c(OCCO)c(Br)c1 [Compound 44] | 58.0241 and 42.9089 and 68.5528 and 58.6725 | 57.04 ± 9.16 |  |  |
| O=C1Nc2cc(Br)ccc2C1=Cc1cc(Br)c(OCCO)c(Br)c1 [Compound 46] |  | 70.23 ± 9.63 |  |  |
| O=C1C(=Cc2cc(Br)c(OCCO)c(Br)c2)c2ccccc2N1c1ccccc1 [Compound 47] |  | 72.76 ± 4.44 |  |  |
| NS(=O)(=O)OC[C@@H]1C[C@@H](n2ccc3c(N[C@H]4CCc5ccccc54)ncnc32)C[C@@H]1O [MLN4924, reference compound] |  |  | 108.675 and 116.153 and 114.111 | 112.98 ± 3.16 |
